Like-named read-outs stand apart in the source and are kept apart here. Marks after values point to notes of the source that are not given here.

The test system of one series is Alternaria solani. Description: Alternaria test (tomato) / protective. The format is in vivo. The note with it: 500 ppm active compound, protective spray, evaluated 7 days after inoculation. As to the method: Alternaria Test (Tomato)/Protective
Solvent: 49 parts by weight of N,N-dimethylformamide
Emulsifier: 1 part by weight of alkylaryl polyglycol ether
To produce a suitable preparation of active compound, 1 part by weight of active compound is mixed with the stated amounts of solvent and emulsifier, and the concentrate is diluted with water to the desired concentration.
To test for protective activity, young tomato plants are sprayed with the preparation of active compound at the stated application rate. […] The plants then remain at 96% rel. atmospheric humidity and a temperature of 20° C.
Evaluation is carried out 7 days after the inoculation. 0% means an efficacy which corresponds to that of the control, whereas an efficacy of 100% means that no infection is observed.

The next series has as its system Fusarium graminearum. Type of series: cell-based. The note with it: 50 μM; for % Inhibition of DON/AcDON at 50 μM: 7 days at 28° C.

Regarding `CC(C)Cn1cc(-c2ccnc(N)c2)c(-c2ccc(Cl)s2)n1` [Example 76], the efficacy in the series on Alternaria solani worked out at 89%. Under “minor isomer, main value of the example measured by method [a], pH 2.3”, the “logP value of the minor isomer (in parenthesis in column Isomer ratio [d])” value was “(1.93)”. Also, the log p (pH 2.3) is 2.04^[a].
Consider `CC(C)Cn1cc(-c2ccnc(N(C(=O)C3CC3)C(=O)C3CC3)c2)c(-c2ccc(Cl)s2)n1` [Example 82], for which the efficacy in the series on Alternaria solani stood at 78%. Moreover, the log p (pH 2.3) is 4.75^[a].
In turn, `CCCc1c(-c2ccncc2)c(-c2sccc2C)nn1C` [Example 165] gave an efficacy with Alternaria solani of 70%. For the same molecule, under “pH 2.7”, the log p was 1.31^[b] and the “logP value of the minor isomer” value was 1.46^[b]). Besides, for the setting “pH 7.8”, the log p is 2.59^[c]; and the “logP value of the minor isomer” value was “(2.79^[c];”.
In the case of `CCC(C)n1nc(-c2ccc(Cl)s2)c(-c2ccncc2)c1Cl` (centres unmarked) [Example 201], the efficacy in the series with Alternaria solani was 78%. Further, in the series with Fusarium graminearum, the “% Inhibition of fungal growth at 50 μM” value was 39% and the “% Inhibition of DON/AcDON at 50 μM” value was found to be 94%. Besides, the log p (pH 2.7) is 3.44^[b].
`CCC(C)n1cc(-c2ccnc(NC(=O)OC(C)C)c2)c(-c2ccc(Cl)s2)n1` (centres unmarked) [Example 239] registered an efficacy in the series on Alternaria solani of 80%. Moreover, the log p (pH 2.7) is 4.33^[b].
`CC(C)n1cc(-c2ccnc(NC(=O)c3ccccc3)c2)c(-c2ccc(Cl)s2)n1` [Example 260] came in with an efficacy with Alternaria solani of 80%. In addition, the log p (pH 2.7) was 4.03^[b].
Turning to `CC(C)n1cc(-c2ccncc2)c(-c2cccs2)n1` [Example 300], in the series on Alternaria solani, the efficacy was determined as 95%. Besides, in the series on Fusarium graminearum, the “% Inhibition of fungal growth at 50 μM” value is 100% and the “% Inhibition of DON/AcDON at 50 μM” value is listed as 99%. Further, for the setting “pH 2.7”, the log p was 1.27^[b].
`Cn1cc(-c2ccnc(N)c2)c(-c2ccc(Cl)s2)n1` [Example 305]: the efficacy in the series with Alternaria solani is on record as 70%. For the same molecule, the log p (pH 2.7) is 1.34^[b].
With `CC(C)n1cc(-c2ccnc(N)c2)c(-c2ccc(Cl)s2)n1` [Example 306], in the series with Fusarium graminearum, the “% Inhibition of fungal growth at 50 μM” value was 87% and the “% Inhibition of DON/AcDON at 50 μM” value is 100%. Under “pH 2.7”, the log p was 1.78^[b].
Consider `Cn1cc(-c2ccnc(Cl)c2)c(-c2ccc(Cl)s2)n1` [Example 313], for which, in the series with Fusarium graminearum, the “% Inhibition of fungal growth at 50 μM” value is recorded as 6% and the “% Inhibition of DON/AcDON at 50 μM” value was 98%. For the same molecule, the log p (pH 2.7) was 3.37^[b].
With `CCn1cc(-c2ccnc(Cl)c2)c(-c2ccc(Cl)s2)n1` [Example 316], in the series on Fusarium graminearum, the “% Inhibition of fungal growth at 50 μM” value amounted to 37% and the “% Inhibition of DON/AcDON at 50 μM” value is 87%. Besides, where the note is “pH 2.7”, the log p is 3.89^[b].
Turning to `N#CCCn1cc(-c2ccncc2)c(-c2ccc(Cl)s2)n1` [Example 322], in the series on Fusarium graminearum, the “% Inhibition of fungal growth at 50 μM” value came out at 0% and the “% Inhibition of DON/AcDON at 50 μM” value is on record as 99%. Moreover, the log p (pH 2.7) is 0.98^[b].
In turn, `Clc1ccc(Cn2cc(-c3ccncc3)c(-c3ccc(Cl)s3)n2)s1` [Example 323] gave an efficacy in the series with Alternaria solani of 78%. Moreover, in the series on Fusarium graminearum, the “% Inhibition of fungal growth at 50 μM” value was found to be 6% and the “% Inhibition of DON/AcDON at 50 μM” value is 94%. Also, the log p (pH 2.7) was 2.64^[b].
Consider `CC1(Cn2cc(-c3ccncc3)c(-c3ccc(Cl)s3)n2)CC1(Cl)Cl` (centres unmarked) [Example 324], for which, in the series with Fusarium graminearum, the “% Inhibition of fungal growth at 50 μM” value was 0% and the “% Inhibition of DON/AcDON at 50 μM” value worked out at 93%. For the same molecule, for the setting “pH 2.7”, the log p is 2.71^[b].
`CCC(C)n1cc(-c2ccncc2)c(-c2cc3ccsc3s2)n1` (centres unmarked) [Example 328] had an efficacy in the series on Alternaria solani of 94%. In the series with Fusarium graminearum, the “% Inhibition of fungal growth at 50 μM” value turned out to be 100% and the “% Inhibition of DON/AcDON at 50 μM” value is on record as 98%. In addition, where the note is “pH 2.7”, the log p is 2.07^[b].
Taken in the same sequence, the figures for `CCn1cc(-c2ccncc2)c(-c2cc3ccsc3s2)n1` [Example 329] were 94%, 85%, 98% and 1.57^[b].
In the series on Alternaria solani, `FC(F)(F)Cn1cc(-c2ccncc2)c(-c2cc3ccsc3s2)n1` [Example 330] came in with an efficacy of 94%. For the same molecule, in the series on Fusarium graminearum, the “% Inhibition of fungal growth at 50 μM” value was 31% and the “% Inhibition of DON/AcDON at 50 μM” value was determined as 94%. Under “pH 2.7”, the log p was 1.91^[b].
As for `c1cc(-c2cn(C3CCCC3)nc2-c2cc3ccsc3s2)ccn1` [Example 332], the efficacy in the series with Alternaria solani turned out to be 94%. For the same molecule, the log p (pH 2.7) is 2.25^[b].
The molecule `CCC(CC)n1cc(-c2ccncc2)c(-c2cc3ccsc3s2)n1` [Example 333] had an efficacy in the series on Alternaria solani of 94%. For the same molecule, in the series on Fusarium graminearum, the “% Inhibition of fungal growth at 50 μM” value was found to be 86% and the “% Inhibition of DON/AcDON at 50 μM” value stood at 98%. Also, under “pH 2.7”, the log p was 2.3^[b].
`CC(C)(C)Cn1cc(-c2ccncc2)c(-c2cc3ccsc3s2)n1` [Example 334] showed an efficacy in the series on Alternaria solani of 78%. The log p (pH 2.7) was 2.35^[b].
`CCOCCn1cc(-c2ccncc2)c(-c2cc3ccsc3s2)n1` [Example 337]: in the series with Alternaria solani, the efficacy is on record as 94%. In the series on Fusarium graminearum, the “% Inhibition of fungal growth at 50 μM” value is listed as 100% and the “% Inhibition of DON/AcDON at 50 μM” value was found to be 99%. Besides, for the setting “pH 2.7”, the log p is 1.7^[b].
In the case of `N#CCCn1cc(-c2ccncc2)c(-c2cc3ccsc3s2)n1` [Example 338], in the series on Fusarium graminearum, the “% Inhibition of fungal growth at 50 μM” value amounted to 50% and the “% Inhibition of DON/AcDON at 50 μM” value was 99%. Moreover, the log p (pH 2.7) is 1.07^[b].
Taken in the same sequence, the figures for `Fc1ccc(-c2nn(Cc3ccc(Cl)s3)cc2-c2ccncc2)s1` [Example 341] were 55%, 96% and 2.34^[b].
On to `CC1(Cn2cc(-c3ccncc3)c(-c3ccc(F)s3)n2)CC1(Cl)Cl` (centres unmarked) [Example 342], for which the efficacy with Alternaria solani was 89%. In the series on Fusarium graminearum, the “% Inhibition of fungal growth at 50 μM” value stood at 23% and the “% Inhibition of DON/AcDON at 50 μM” value is reported as 97%. The log p (pH 2.7) is 2.39^[b].
The molecule `Fc1ccc(-c2nn(C3CCCC3)cc2-c2ccncc2)s1` [Example 344] returned an efficacy in the series on Alternaria solani of 94%. In the series on Fusarium graminearum, the “% Inhibition of fungal growth at 50 μM” value is 91% and the “% Inhibition of DON/AcDON at 50 μM” value is reported as 98%. The log p (pH 2.7) was 2.02^[b].
`CC(C)(C)Cn1cc(-c2ccncc2)c(-c2ccc(F)s2)n1` [Example 345] came in with an efficacy in the series with Alternaria solani of 94%. In the series on Fusarium graminearum, the “% Inhibition of fungal growth at 50 μM” value is listed as 63% and the “% Inhibition of DON/AcDON at 50 μM” value is recorded as 97%. Under “pH 2.7”, the log p was 2.11^[b].
Taken in the same sequence, the figures for `CC(C)(C)Cn1cc(-c2ccncc2)c(-c2ccc(Br)s2)n1` [Example 347] were 70%, 79%, 99% and 2.46^[b].
In the case of `N#CCn1cc(-c2ccncc2)c(-c2ccc(Br)s2)n1` [Example 348], in the series with Fusarium graminearum, the “% Inhibition of fungal growth at 50 μM” value came to 45% and the “% Inhibition of DON/AcDON at 50 μM” value amounted to 99%. The log p (pH 2.7) is 1.51^[b].
The like results for `CCOCCn1cc(-c2ccncc2)c(-c2ccc(Br)s2)n1` [Example 349] were, in that order, 95%, 99% and 1.75^[b].
Taken in the same sequence, the figures for `Clc1ccc(Cn2cc(-c3ccncc3)c(-c3ccc(Br)s3)n2)s1` [Example 351] were 36%, 99% and 2.69^[b].
In the case of `Fc1cccc(Cn2cc(-c3ccncc3)c(-c3ccc(Br)s3)n2)c1F` [Example 353], the efficacy with Alternaria solani is 78%. Besides, where the note is “pH 2.7”, the log p is 2.44^[b].
Consider `Brc1ccc(-c2nn(C3CCCC3)cc2-c2ccncc2)s1` [Example 356], for which, in the series on Fusarium graminearum, the “% Inhibition of fungal growth at 50 μM” value amounted to 75% and the “% Inhibition of DON/AcDON at 50 μM” value was 97%. Besides, where the note is “pH 2.7”, the log p was 2.37^[b].
For `O=C1OCCC1n1cc(-c2ccncc2)c(-c2ccc(Cl)s2)n1` (centres unmarked) [Example 365], in the series with Alternaria solani, the efficacy is given as 78%. Besides, in the series with Fusarium graminearum, the “% Inhibition of fungal growth at 50 μM” value is 100% and the “% Inhibition of DON/AcDON at 50 μM” value is 90%. The log p (pH 2.7) was 1.48^[b].
Regarding `CC(C)n1cc(-c2ccncc2)c(-c2cc3ccsc3s2)n1` [Example 366], the efficacy with Alternaria solani was 78%. Besides, in the series with Fusarium graminearum, the “% Inhibition of fungal growth at 50 μM” value amounted to 93% and the “% Inhibition of DON/AcDON at 50 μM” value is given as 98%. The log p (pH 2.7) is 1.79^[b].
In the series on Alternaria solani, `FCCn1cc(-c2ccncc2)c(-c2cc3ccsc3s2)n1` [Example 367] registered an efficacy of 78%. In the series with Fusarium graminearum, the “% Inhibition of fungal growth at 50 μM” value was determined as 78% and the “% Inhibition of DON/AcDON at 50 μM” value is given as 99%. Besides, the log p (pH 2.7) was 1.45^[b].
Take `ClCCn1cc(-c2ccncc2)c(-c2cc3ccsc3s2)n1` [Example 370]: in the series on Fusarium graminearum, the “% Inhibition of fungal growth at 50 μM” value was 70% and the “% Inhibition of DON/AcDON at 50 μM” value came to 99%. Moreover, the log p (pH 2.7) was 1.7^[b].
`O=C1OCCC1n1cc(-c2ccncc2)c(-c2cc3ccsc3s2)n1` (centres unmarked) [Example 372]: in the series on Fusarium graminearum, the “% Inhibition of fungal growth at 50 μM” value was 1% and the “% Inhibition of DON/AcDON at 50 μM” value is reported as 98%. Besides, the log p (pH 2.7) was 1.49^[b].
For `ClCCn1cc(-c2ccncc2)c(-c2ccc(Br)s2)n1` [Example 393], in the series on Fusarium graminearum, the “% Inhibition of fungal growth at 50 μM” value is 96% and the “% Inhibition of DON/AcDON at 50 μM” value came out at 99%. In addition, where the note is “pH 2.7”, the log p was 1.78^[b] and the “logP value of the minor isomer” value is recorded as “(1.61)”.
As to `CC(C)Cn1ncc(-c2ccncc2)c1-c1ccc(Br)s1` [Example 406], in the series on Fusarium graminearum, the “% Inhibition of fungal growth at 50 μM” value was found to be 0% and the “% Inhibition of DON/AcDON at 50 μM” value was 95%. Where the note is “pH 2.7”, the log p is 1.91^[b].

Source of the values: patent publication US8685974B2 (Bayer CropScience AG, priority 2009, dated 2014).
